Test [1] deals with Cytochrome P450 2D6 (Homo sapiens, UniProt P10635).
The target in test [2] is Cytochrome P450 2C9 (Homo sapiens, UniProt P11712).
The nature of test [3]: viability of uninfected HEp-2 cells – cell-based, HTS, cytotoxicity control for RSV inhibitor project, dose response (AID 2410). Format: functional. The following applies: human respiratory syncytial virus.
For test [4], the target named is T1, Rac GTPase-activating protein 1 (Homo sapiens, UniProt Q9H0H5).
T1 sequence (Q9H0H5 whole entry): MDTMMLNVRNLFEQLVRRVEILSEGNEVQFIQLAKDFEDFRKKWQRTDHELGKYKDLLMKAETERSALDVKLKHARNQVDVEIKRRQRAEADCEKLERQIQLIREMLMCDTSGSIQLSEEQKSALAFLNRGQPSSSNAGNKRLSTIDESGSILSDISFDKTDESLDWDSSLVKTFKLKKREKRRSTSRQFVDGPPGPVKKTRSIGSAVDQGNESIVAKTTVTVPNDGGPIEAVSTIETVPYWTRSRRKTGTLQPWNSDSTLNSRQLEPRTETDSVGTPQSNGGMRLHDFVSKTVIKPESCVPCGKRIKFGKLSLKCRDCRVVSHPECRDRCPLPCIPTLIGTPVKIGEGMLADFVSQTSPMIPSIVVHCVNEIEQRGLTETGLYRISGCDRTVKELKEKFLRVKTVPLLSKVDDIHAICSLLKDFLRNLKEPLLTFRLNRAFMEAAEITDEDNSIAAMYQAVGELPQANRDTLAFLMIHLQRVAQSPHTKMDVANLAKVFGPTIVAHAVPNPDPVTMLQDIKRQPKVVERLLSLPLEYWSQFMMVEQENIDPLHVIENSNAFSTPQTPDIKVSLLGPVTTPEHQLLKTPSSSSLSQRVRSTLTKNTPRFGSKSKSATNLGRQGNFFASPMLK
Nature of the test: blockers of MgcRacGAP-driven Rac1 GTP hydrolysis – biochemical, ADP Hunter fluorescence, primary and confirmatory, confirmation (AID 624330). Format: functional.

Test [5] concerns the target T2, Streptokinase A (Streptococcus pyogenes serotype M1, UniProt P10520).
T2 sequence (P10520 whole entry): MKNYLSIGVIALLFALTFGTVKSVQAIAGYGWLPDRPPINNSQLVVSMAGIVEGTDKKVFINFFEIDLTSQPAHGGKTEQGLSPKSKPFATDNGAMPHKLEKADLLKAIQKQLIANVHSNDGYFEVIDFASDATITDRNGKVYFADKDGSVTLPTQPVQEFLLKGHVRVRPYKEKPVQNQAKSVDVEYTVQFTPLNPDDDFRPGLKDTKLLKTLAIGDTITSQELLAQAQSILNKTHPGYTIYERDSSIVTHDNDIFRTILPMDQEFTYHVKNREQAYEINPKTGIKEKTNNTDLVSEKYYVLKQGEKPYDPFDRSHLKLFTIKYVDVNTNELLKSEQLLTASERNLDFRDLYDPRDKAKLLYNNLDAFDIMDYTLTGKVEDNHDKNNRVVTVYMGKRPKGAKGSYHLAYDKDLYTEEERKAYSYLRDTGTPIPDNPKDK
Nature of the test: viability-normalized secreted streptokinase activity reduction – plasminogen activation absorbance, OD405, dose response (AID 1914).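 Also: secreted streptokinase activity via plasminogen activation per viability signal from cell pellet.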 Format: functional, Streptococcus pyogenes M1 GAS.

For test [6], the system named is Streptococcus sp. 'group A'. Nature of the test: Streptococcus pyogenes SK(-)GAS viability under kanamycin – luminescence, BacTiterGlo, confirmation, counter-screen for streptokinase expression inhibitor project, dose response (AID 1900). In kind it is functional, organism-based.
Test [7] has as its system Streptococcus. Nature of the test: GAS UMAA2166 growth inhibition – luminescence, BacTiterGlo, counter-screen for streptokinase expression inhibitor project, dose response (AID 1915).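 Also: potency for reduction of bacterial viability or growth.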 In kind it is functional, organism-based. (In general: Counterscreens check selectivity or assay interference.)
Test [8] is described as follows: Trypanosoma cruzi growth suppression in host cells – NIH3T3 host cells, beta-gal luminescence, confirmation (AID 2044).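 Also: intracellular parasites grown in NIH/3T3 mouse fibroblasts as host cells; luminescent beta-galactosidase reporter signal from transgenic T. cruzi replicating inside host cells; inhibitors lower the luminescence signal.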 Format: functional, cell-based.
The nature of test [9]: NIH3T3 cell viability loss – ATP luminescence, mouse fibroblasts, counter-screen, dose response (AID 2010).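 Also: cells exposed to compound for about 90 hours before reading.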 Format: functional, cell-based.
Test [10] has as its target Cytochrome P450 3A4 (Homo sapiens, UniProt P08684).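 Also: CYP3A4 tested as one member of a cytochrome P450 panel screen.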
Test [11] has as its target Cytochrome P450 2C19 (Homo sapiens, UniProt P33261). Nature of the test: Cytochrome panel assay with activity outcomes. Panel member name: p450-cyp2c19 Compounds with AC50 equal or less than 10 uM are considered active. Particulars: read-out: AC50. Format: functional.
Test [12] deals with T3, Protein RecA (Mycobacterium tuberculosis, UniProt P9WHJ3).
T3 sequence (P9WHJ3 whole entry): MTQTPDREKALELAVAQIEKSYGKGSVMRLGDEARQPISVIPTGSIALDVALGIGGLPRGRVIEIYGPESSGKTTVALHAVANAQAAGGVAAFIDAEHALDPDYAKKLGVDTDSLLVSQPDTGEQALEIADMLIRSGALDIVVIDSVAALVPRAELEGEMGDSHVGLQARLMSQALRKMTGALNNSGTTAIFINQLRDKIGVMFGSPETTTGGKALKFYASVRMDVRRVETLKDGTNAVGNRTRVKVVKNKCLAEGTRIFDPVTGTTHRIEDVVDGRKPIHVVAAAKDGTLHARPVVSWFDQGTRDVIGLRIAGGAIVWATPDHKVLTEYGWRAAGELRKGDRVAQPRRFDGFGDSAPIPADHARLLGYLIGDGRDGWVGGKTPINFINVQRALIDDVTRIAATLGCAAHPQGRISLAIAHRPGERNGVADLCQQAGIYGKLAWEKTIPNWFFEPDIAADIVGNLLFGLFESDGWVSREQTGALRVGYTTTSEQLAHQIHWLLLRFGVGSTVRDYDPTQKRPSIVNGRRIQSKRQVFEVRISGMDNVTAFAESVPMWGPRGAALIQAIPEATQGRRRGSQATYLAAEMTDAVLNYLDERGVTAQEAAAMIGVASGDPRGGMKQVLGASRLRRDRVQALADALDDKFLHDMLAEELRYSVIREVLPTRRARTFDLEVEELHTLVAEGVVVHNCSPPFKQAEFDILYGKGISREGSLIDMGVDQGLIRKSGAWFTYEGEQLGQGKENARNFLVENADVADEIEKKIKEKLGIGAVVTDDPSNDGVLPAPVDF
Nature of the test: Fluorescence Cell-Free Homogeneous Dose Retest to Identify Inhibitors of RecA-Intein Splicing Activity. [Related pubchem assays (depositor defined):AID2097, AID2223, AID489010, AID492950]. Format: functional.

The target in test [13] is T4, Replicative DNA helicase DnaB (Mycobacterium tuberculosis, UniProt P9WMR3).
T4 sequence (P9WMR3 whole entry): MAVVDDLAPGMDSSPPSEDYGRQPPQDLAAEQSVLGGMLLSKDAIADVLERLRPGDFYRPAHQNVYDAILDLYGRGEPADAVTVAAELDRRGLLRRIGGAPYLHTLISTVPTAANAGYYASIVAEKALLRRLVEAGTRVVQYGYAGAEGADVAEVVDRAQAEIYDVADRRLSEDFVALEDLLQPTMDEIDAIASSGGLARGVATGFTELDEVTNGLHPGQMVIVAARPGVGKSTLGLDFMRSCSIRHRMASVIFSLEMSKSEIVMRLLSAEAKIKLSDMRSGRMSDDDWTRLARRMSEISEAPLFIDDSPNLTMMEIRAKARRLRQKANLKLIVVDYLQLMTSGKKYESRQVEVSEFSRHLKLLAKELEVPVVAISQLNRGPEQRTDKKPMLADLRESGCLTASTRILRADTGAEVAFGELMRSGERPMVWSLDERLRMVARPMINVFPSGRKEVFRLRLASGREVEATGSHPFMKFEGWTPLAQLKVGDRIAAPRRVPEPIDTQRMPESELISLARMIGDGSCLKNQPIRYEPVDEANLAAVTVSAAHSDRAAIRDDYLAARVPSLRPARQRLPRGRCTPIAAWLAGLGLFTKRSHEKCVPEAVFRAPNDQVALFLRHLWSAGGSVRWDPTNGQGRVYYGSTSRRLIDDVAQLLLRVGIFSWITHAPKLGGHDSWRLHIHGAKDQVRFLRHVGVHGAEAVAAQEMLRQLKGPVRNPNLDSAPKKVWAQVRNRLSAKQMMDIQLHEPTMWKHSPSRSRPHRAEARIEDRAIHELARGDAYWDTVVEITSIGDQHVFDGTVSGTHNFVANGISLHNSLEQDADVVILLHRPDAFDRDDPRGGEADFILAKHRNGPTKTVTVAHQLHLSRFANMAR
Nature of the test: DnaB intein splicing inhibitors, dose response, biochemical, cell-free fluorescence (AID 449749). Format: functional.

Active and inactive are the calls of the source.

Chain of Cytochrome P450 2C19 (P33261 whole entry): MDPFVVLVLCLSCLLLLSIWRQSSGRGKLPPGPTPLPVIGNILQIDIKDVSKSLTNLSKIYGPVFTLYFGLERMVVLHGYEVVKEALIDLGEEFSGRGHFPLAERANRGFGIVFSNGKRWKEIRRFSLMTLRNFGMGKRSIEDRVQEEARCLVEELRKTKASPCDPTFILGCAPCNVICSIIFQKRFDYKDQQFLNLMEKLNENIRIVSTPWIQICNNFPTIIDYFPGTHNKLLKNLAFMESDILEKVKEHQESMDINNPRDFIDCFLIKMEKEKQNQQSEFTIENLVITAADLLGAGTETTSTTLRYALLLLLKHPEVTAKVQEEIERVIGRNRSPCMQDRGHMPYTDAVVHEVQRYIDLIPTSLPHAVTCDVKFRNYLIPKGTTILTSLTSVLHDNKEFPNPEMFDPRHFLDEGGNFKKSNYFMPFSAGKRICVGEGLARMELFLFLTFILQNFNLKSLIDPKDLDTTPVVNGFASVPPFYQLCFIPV
Chain of Cytochrome P450 2C9 (P11712 whole entry): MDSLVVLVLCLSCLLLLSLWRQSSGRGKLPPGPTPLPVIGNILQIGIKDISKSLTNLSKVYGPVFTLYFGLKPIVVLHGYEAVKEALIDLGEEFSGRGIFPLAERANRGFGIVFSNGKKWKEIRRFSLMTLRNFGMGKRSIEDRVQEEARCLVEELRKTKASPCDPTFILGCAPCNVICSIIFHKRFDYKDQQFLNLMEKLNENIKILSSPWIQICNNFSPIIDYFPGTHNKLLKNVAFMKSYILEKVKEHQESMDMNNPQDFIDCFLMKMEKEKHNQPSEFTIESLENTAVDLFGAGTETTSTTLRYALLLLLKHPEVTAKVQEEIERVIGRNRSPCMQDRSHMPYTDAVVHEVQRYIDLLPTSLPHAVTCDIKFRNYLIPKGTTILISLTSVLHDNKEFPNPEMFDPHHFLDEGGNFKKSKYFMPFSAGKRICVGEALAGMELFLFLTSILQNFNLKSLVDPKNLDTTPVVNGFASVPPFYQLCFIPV
Chain of Cytochrome P450 2D6 (P10635 whole entry): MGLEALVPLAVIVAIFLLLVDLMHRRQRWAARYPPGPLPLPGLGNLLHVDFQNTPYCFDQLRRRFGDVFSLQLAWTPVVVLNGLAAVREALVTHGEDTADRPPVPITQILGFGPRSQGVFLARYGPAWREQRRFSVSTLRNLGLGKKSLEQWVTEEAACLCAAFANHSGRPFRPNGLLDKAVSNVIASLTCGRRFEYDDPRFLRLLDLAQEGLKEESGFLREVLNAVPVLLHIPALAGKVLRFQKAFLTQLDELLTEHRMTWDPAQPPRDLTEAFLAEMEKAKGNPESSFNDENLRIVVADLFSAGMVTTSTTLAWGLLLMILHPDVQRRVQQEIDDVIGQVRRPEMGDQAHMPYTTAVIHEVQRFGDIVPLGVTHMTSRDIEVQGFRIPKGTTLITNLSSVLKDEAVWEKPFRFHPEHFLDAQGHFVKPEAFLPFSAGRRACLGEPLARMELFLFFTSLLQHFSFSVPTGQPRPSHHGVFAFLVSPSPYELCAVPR
Chain of Cytochrome P450 3A4 (P08684 whole entry): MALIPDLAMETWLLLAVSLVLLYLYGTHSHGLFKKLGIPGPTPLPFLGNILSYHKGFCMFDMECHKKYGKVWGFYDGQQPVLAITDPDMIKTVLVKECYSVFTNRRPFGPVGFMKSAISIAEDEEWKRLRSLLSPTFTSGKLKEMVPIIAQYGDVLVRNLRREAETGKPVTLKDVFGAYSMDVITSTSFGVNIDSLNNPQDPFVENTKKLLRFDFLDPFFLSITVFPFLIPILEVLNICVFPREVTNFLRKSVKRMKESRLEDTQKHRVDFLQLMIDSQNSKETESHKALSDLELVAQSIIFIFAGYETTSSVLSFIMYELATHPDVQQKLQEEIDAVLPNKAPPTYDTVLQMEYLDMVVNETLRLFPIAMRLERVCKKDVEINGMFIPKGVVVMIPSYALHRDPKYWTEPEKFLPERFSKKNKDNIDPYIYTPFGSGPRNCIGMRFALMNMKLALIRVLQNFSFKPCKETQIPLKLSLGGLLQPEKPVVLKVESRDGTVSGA

As a reminder, the AC50 is the concentration at which the activity in the assay is half-maximal. On to `Clc1ccccc1-c1nc(Nc2ccncc2)c2ccccc2n1`, for which the half-maximal activity concentration (AC50) in [1] is 39.8 µM (inconclusive); in test [2], 1.58 µM (inconclusive).
One may read the CC50 as the concentration at which the toxic effect on the cells reaches its halfway point. `CCOC(=O)C1=C(O)c2ccccc2C(=O)/C1=C\c1ccc(C)cc1`: in test [3], the 50% cytotoxic concentration (CC50) was 31.5 µM (active).
As usually defined, the IC50 is the midpoint of a concentration-inhibition curve. For the compound `O=c1c2ccccc2nc(/C=C/c2ccc(O)c(O)c2)n1-c1ccccc1`, in test [4], the 50% inhibitory concentration (IC50) was 73.9 µM (active).
Take `COc1ccccc1NS(=O)(=O)c1cccc(C(=O)OCC(=O)Nc2cc(C)on2)c1`: the values for the AC50 in test [1] and in [2] were 31.6 µM (inconclusive) and 12.6 µM (inconclusive), respectively.
As to `Cc1ccccc1-c1nccc(Nc2ccc(F)cc2)n1`, the AC50 in test [1] was 20 µM (inconclusive).
For `Cc1ccc2nc(Nc3ccc(Cl)cc3)c3nncn3c2c1`, in test [3], the 50% cytotoxic concentration (CC50) is 34.4 µM (active).
The same measure, in the same setting: under `O=C(c1cc(S(=O)(=O)N2CCOCC2)ccc1F)N(CCc1ccccc1)Cc1ccccc1` stands 29.8 µM (active).
As usually defined, the EC50 is the concentration needed to bring the measured effect to its halfway point. As for `O=C(Nc1cccc(-c2nnc(-c3ccccc3)o2)c1)c1ccc(Br)o1`, the values for the EC50 in test [5], in test [6] and in test [7] were > 150 µM (not active), 9.53 µM (active) and 14.2 µM (active), respectively.
As to `CN1c2ccccc2C(C)(C)[C@]12C=Cc1cc(O)ccc1O2`, the CC50 in test [3] was 7.32 µM (active).
On to `CC1=NN(C(=Nc2ccc(C(C)(C)C)cc2)Nc2nnc(C)s2)[C@H](c2ccc(C)cc2)S1`, for which the EC50 in [5] is 13.9 µM (active); in test [8] it was 1.85 µM (active); in test [6], 8.28 µM (active); in test [7], > 150 µM (not active); in test [9], > 60 µM (not active).
Regarding `COc1ccccc1-c1nc(NCCN2CCOCC2)c2ccccc2n1`, the AC50 in [1] and in test [10] was 31.6 µM (inconclusive) throughout.
For the compound `Oc1ccccc1-[n+]1c(-c2ccccc2)cc(-c2ccccc2)cc1-c1ccccc1.[O-][Cl+3]([O-])([O-])[O-]`, the CC50 in [3] is 11.7 µM (active).
The same measure, in the same setting: under `OCCCn1c(C(CO)Nc2nc(-c3ccc(Cl)cc3)cs2)nc2ccccc21` (configuration not stated) stands 15.5 µM (active).
Take `COC(=O)CSc1nnc(-c2cnccn2)n1C`: the EC50 in test [5], in test [6] and in test [7] was > 150 µM (not active) in each case.
Turning to `O=C(Cc1cccs1)Nc1cccc(-c2nnc(-c3ccco3)o2)c1`, in test [3], the CC50 is > 12.5 µM (active).
As to `O=C(Nc1cccc(F)c1)N1CC2(CCN(S(=O)(=O)c3ccccc3)CC2)C1`, the AC50 in test [11] is 15.8 µM (inconclusive); in test [1], 39.8 µM (inconclusive); in test [2], 20 µM (inconclusive).
As for `COc1ccc(C2CC(c3ccccc3)=NN2c2ccc(S(N)(=O)=O)cc2)cc1OC` (configuration not stated), the CC50 in test [3] is 24.2 µM (active).
Take `Cc1cc2oc(=O)cc(CN(C)Cc3ccccc3Cl)c2cc1C`: the EC50 is 14.4 µM (active) in [5], 20.8 µM (active) in test [6] and > 150 µM (not active) in [7].
In the case of `Cc1ccc(C2=C(Cl)C(=O)C(c3ccc(C)cc3)=C(Cl)C2=O)cc1`, the half-maximal activity concentration (AC50) in [11] and in test [1] was 3.98 µM (inconclusive) in each case.
For the compound `Cc1ccc2nc(-c3ccc(NS(=O)(=O)c4ccc(F)c(F)c4)cc3)sc2c1`, the concentration for a half-maximal effect (EC50) was 5.1 µM (active) in [5], 2.65 µM (active) in test [6] and 5.92 µM (active) in [7].
Take `O=C(CSc1nnc(-c2ccccn2)n1Cc1ccco1)c1ccc(-c2ccccc2)cc1`: the CC50 in test [3] is 34.3 µM (active).
Consider `O=C(NC(=S)Nc1ccc(Br)cn1)c1cncc(Br)c1`, for which the figures for the half-maximal activity concentration (AC50) in [11], in [1] and in [2] were 35.5 µM (inconclusive), 0.631 µM (inconclusive) and 0.447 µM (inconclusive), respectively.
With `CC(=O)NCCn1c(SCC(=O)NCc2ccco2)nc2ccccc2c1=O`, the values for the AC50 in test [1], in [13] and in test [2] were 0.0447 µM (inconclusive), 7.22 µM (active) and 25.1 µM (inconclusive), respectively. Further, in test [12], the EC50 is 9.17 µM (active).
With `CCC1=NN2C(=N)/C(=C/c3ccc(OS(=O)(=O)c4ccccc4)cc3)C(=O)N=C2S1`, in [3], the CC50 was > 50 µM (active).
As for `Cc1ccc(S(=O)(=O)N2CCN(C(=O)CN3CCN(c4ccc(O)cc4)CC3)CC2)cc1`, the 50% inhibitory concentration (IC50) in [4] was 32.4 µM (active).
On the same count and under the same terms, in the case of `O=C1CCC(C2CCc3cc(O)ccc3C2)C1` (configuration not stated) it was 70.4 µM (active).
For the compound `COc1cccc(/C=N/NC(=O)c2cc(-c3cccn3C)[nH]n2)c1`, in test [1], the AC50 is 0.00794 µM (inconclusive).
In the case of `CCOc1cc(/C=N/NC(=O)C(=O)NCc2cccnc2)ccc1O`, the IC50 in test [4] was 54.5 µM (active).
Take `CN(C)c1ccc(-c2ccc3ncnc(NCc4ccccc4)c3c2)cc1`: the half-maximal activity concentration (AC50) in test [1] is 12.6 µM (inconclusive).

Source of the values: ChEMBL document CHEMBL1201862, “PubChem BioAssay data set” (2004).
